Laboratory results taken from patent US6066672A, “Amino compounds and angiotensin IV receptor agonists” (Taisho Pharmaceutical Co., Ltd., priority 1996, dated 2000).
Where a name gives a salt, the structure may show the parent alone.

What follows are molecules tested against T1, angiotensin IV receptor (Cavia porcellus, UniProt H0VNM7) (assay: binding capability to angiotensin IV receptor, inhibition of 125I-angiotensin IV binding to guinea pig hippocampus membrane). Details: 0.2 nM 125I-angiotensin IV, Hartley guinea pig hippocampus crude membrane, 37° C., 90 minutes, pH 7.4.
T1 construct: The Hartley guinea pig hippocampus was homogenized in a 50 mM Tris hydrochloride buffer solution; from tissue; host or cells: Hartley guinea pig hippocampus, crude membrane (48,000 x g precipitate)
T1 sequence (H0VNM7 1-1025): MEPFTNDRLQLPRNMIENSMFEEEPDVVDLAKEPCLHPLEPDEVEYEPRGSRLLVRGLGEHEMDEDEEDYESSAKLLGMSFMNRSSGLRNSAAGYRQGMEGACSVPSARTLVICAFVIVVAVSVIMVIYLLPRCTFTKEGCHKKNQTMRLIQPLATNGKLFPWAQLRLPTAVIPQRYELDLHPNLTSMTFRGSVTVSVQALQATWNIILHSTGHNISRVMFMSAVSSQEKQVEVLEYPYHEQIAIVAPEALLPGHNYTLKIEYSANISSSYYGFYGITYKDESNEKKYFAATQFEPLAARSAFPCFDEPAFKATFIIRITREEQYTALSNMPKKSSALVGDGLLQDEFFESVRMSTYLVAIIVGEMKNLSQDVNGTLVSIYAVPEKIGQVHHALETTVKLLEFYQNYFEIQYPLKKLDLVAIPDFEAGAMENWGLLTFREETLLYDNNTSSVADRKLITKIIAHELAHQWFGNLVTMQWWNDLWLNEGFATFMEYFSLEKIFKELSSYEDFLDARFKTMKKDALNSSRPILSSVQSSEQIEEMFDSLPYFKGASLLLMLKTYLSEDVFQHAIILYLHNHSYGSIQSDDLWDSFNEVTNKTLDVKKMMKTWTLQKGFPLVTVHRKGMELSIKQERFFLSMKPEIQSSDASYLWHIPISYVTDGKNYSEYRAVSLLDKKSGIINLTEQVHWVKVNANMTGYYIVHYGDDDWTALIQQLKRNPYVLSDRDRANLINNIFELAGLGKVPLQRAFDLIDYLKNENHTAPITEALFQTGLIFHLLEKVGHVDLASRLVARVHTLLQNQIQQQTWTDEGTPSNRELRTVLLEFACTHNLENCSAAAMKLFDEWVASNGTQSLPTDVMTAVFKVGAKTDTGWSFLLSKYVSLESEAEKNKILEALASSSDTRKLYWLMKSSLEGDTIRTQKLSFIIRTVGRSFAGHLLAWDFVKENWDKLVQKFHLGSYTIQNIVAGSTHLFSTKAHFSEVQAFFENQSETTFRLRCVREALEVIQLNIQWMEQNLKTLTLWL
Experimental: The binding capability to angiotensin IV receptor was measured by using Hartley guinea pig hippocampus referring to the method described by Miller-Wing et al., J. Pharmacol. Exp. Ther., vol. 266, pp.1718 (1993). The Hartley guinea pig hippocampus was homogenized in a 50 mM Tris hydrochloride buffer solution (pH 7.4) containing 1 mM ethylenediamine-N,N,N',N'-tetraacetic acid (EDTA) and 100 μM phenylmethanesulfonyl fluoride (PMSF). After centrifugation at 900× g, the resulting supernatant was further centrifuged at 48,000× g. The precipitate was washed once with the same buffer solution and suspended in 50 mM Tris hydrochloride buffer solution (pH 7.4) containing 150 mM sodium chloride, 1 mM EDTA, 100 μM PMSF and 0.1% bovine serum albumin (BSA) to give a protein concentration of […] as a crude membrane specimen. […] The radioactivity on the filter paper was measured by using a gamma-counter. The non-specific bond was measured in the presence of 1 μM angiotensin IV, and the specific bond was calculated by subtracting the non-specific bond from the total bond.

Question: With `CCCC[C@H](N)C(=O)N[C@H](CN[C@H](CCc1ccccc1)CC(C)C)Cc1ccc(O)cc1` [Example 28, N-[1-[(S)-[(4-hydroxyphenyl)methyl]]-2-[[(R)-3-methyl-1-(2-phenylethyl)butyl]amino]ethyl]-L-norleucinamide dihydrochloride] as the molecule, how does the IC50 read?
Answer: Its IC50 is 299 nM.

Question: How did the IC50 turn out when `CCCC[C@H](N)CN[C@@H](Cc1ccc(O)cc1)C(=O)N[C@H](CCc1ccc(C)cc1)[C@@H](C)CC` [Example 2, N'-[(S)-2-aminohexyl]-N-[(1R,2S)-2-methyl-1-[2-(4-methylphenyl)ethyl]butyl]-L-tyrosinamide dihydrochloride] was run?
Answer: The IC50 was 4.13 nM.

Question: For `CCCC[C@H](N)CN[C@@H](Cc1ccc(O)cc1)C(=O)N[C@H](CCCc1ccccc1)CC(C)C` [Example 6, N'-[(S)-2-aminohexyl]-N-[(R)-3-methyl-1-(3-phenylpropyl)butyl]-L-tyrosinamide dihydrochloride], which IC50 is on record?
Answer: The IC50 was 18.3 nM.

Question: `CCCC[C@H](N)CN[C@@H](Cc1ccc(O)cc1)C(=O)N[C@H](/C=C/c1cccc2ccccc12)CC(C)C` [Example 15, N'-[(S)-2-aminohexyl]-N-[(S)-(E)-1-(2-methylpropyl)-3-(1-naphthyl)-2-propenyl]-L-tyrosinamide dihydrochloride] was tested. Which IC50 did it give?
Answer: Its IC50 is 3.76 nM.

Question: For `CCCC[C@H](N)CN[C@@H](Cc1ccc(O)cc1)C(=O)N[C@H](/C=C/c1ccc(Cl)cc1)CC(C)C` [Example 19, N'-((S)-2-aminohexyl]-N-[(S)-(E)-3-(4-chlorophenyl)-1-(2-methylpropyl)-2-propenyl]-L-tyrosinamide dihydrochloride], which IC50 is on record?
Answer: Its IC50 is 0.53 nM.

Question: With `CCCC[C@H](N)CN[C@@H](Cc1ccc(O)cc1)C(=O)N[C@H](/C=C/c1ccc(C(=O)OC)cc1)CC(C)C` [Example 11, N'-[(S)-2-aminohexyl]-N-[(S)-(E)-3-(4-methoxycarbonylphenyl)-1-(2-methylpropyl)-2-propenyl]-L-tyrosinamide dihydrochloride] as the molecule, how does the IC50 read?
Answer: Its IC50 is 1.23 nM.

Question: Which IC50 does the source give for `CCCC[C@H](N)CN[C@@H](Cc1ccc(O)cc1)C(=O)N[C@@H](CCc1ccncc1)CC(C)C` [Example 10, N'-[(S)-2-aminohexyl]-N-[(S)-3-methyl-1-[2-(4-pyridyl)ethyl]butyl]-L-tyrosinamide trihydrochloride] here?
Answer: The IC50 was 81.1 nM.

Question: With `CCCC[C@H](N)CN[C@H](CN[C@H](C(=O)OC)[C@@H](C)CC)Cc1ccc(O)cc1` [Example 31, N-[(S)-2-[[(S)-2-aminohexyl]amino]-3-(4-hydroxyphenyl)propyl]-L-isoleucinemethyl ester trihydrochloride] as the molecule, how does the IC50 read?
Answer: The IC50 was 32 nM.

Question: How did the IC50 turn out when `CCCC[C@H](N)CN[C@@H](Cc1ccc(O)cc1)C(=O)N[C@H](/C=C\Cc1ccccc1)CC(C)C` [Example 5, N'-[(S)-2-aminohexyl]-N-[(S)-(Z)-1-(2-methylpropyl)-4-phenyl-2-butenyl]-L-tyrosinamide dihydrochloride] was run?
Answer: Its IC50 is 7.22 nM.

Question: `CCCC[C@H](N)CN[C@@H](Cc1ccc(O)cc1)C(=O)N[C@H](/C=C/c1ccc2ccccc2n1)CC(C)C` [Example 23, N'-[(S)-2-aminohexyl]-N-[(S)-(E)-3-(2-quinolyl)-1-(2-methylpropyl)-2-propenyl]-L-tyrosinamide trihydrochloride] was tested. Which IC50 did it give?
Answer: Its IC50 is 0.53 nM.

Question: With `CCCC[C@H](N)CN[C@@H](Cc1ccc(O)cc1)C(=O)N[C@H](CCc1cccc2ccccc12)CC(C)C` [Example 16, N'-[(S)-2-aminohexyl]-N-[(R)-3-methyl-1-[2-(1-naphthyl)ethyl]butyl]-L-tyrosinamide dihydrochloride] as the molecule, how does the IC50 read?
Answer: The IC50 was 3.43 nM.

Question: How did the IC50 turn out when `CCCC[C@H](N)CN[C@@H](Cc1ccc(O)cc1)C(=O)N[C@H](CCc1ccc(C(=O)O)cc1)CC(C)C` [Example 14, N'-[(S)-2-aminohexyl]-N-[(R)-3-methyl-1-[2-(4-carboxyphenyl)ethyl]butyl]-L-tyrosinamide dihydrochloride] was run?
Answer: The IC50 was 26.6 nM.

Question: `CCCC[C@H](N)CN[C@@H](Cc1ccc(O)cc1)C(=O)N[C@H](CCc1ccc(-c2ccccc2)cc1)CC(C)C` [Example 22, N'-[(S)-2-aminohexyl]-N-[(R)-1-[2-([1,1'-biphenyl]-4-yl)ethyl]-3-methylbutyl]-L-tyrosinamide dihydrochloride] was tested. Which IC50 did it give?
Answer: Its IC50 is 89 nM.

Question: For `CCCC[C@H](N)CN[C@@H](Cc1ccc(O)cc1)C(=O)N[C@H](/C=C/c1ccc(C(=O)O)cc1)CC(C)C` [Example 13, N'-[(S)-2-aminohexyl]-N-[(S)-(E)-3-(4-carboxyphenyl)-1-(2-methylpropyl)-2-propenyl]-L-tyrosinamide dihydrochloride], which IC50 is on record?
Answer: The IC50 was 1.79 nM.

Question: With `CCCC[C@H](N)CN[C@@H](Cc1ccc(O)cc1)C(=O)N[C@H](/C=C/c1ccccc1)CC(C)C` [Example 17, N'-[(S)-2-aminohexyl]-N-[(S)-(E)-1-(2-methylpropyl)-3-phenyl-2-propenyl]-L-tyrosinamide dihydrochloride] as the molecule, how does the IC50 read?
Answer: The IC50 was 0.65 nM.

Question: For `CCCC[C@H](N)C(=O)N[C@H](CN[C@H](/C=C/c1ccccc1)CC(C)C)Cc1ccc(O)cc1` [Example 27, N-[(S)-1-[(4-hydroxyphenyl)methyl]-2-[(S)-(E)-[1-(2-methylpropyl)-3-phenyl-2-propenyl]amino]ethyl]-L-norleucinamide dihydrochloride], which IC50 is on record?
Answer: Its IC50 is 328 nM.

Question: Which IC50 does the source give for `CCCC[C@H](N)CN[C@@H](Cc1ccc(O)cc1)C(=O)N[C@H](/C=C\c1ccc(Cl)cc1)CC(C)C` [Example 20, N'-[(S)-2-aminohexyl]-N-[(S)-(Z)-3-(4-chlorophenyl)-1-(2-methylpropyl)-2-propenyl]-L-tyrosinamide dihydrochloride] here?
Answer: The IC50 was 5.46 nM.

Question: How did the IC50 turn out when `CCCC[C@H](N)CN[C@@H](Cc1ccc(O)cc1)C(=O)N[C@H](CCc1ccncc1)CC(C)C` [Example 8, N'-[(S)-2-aminohexyl]-N-[(R)-3-methyl-1-[2-(4-pyridyl)ethyl]butyl]-L-tyrosinamide trihydrochloride] was run?
Answer: Its IC50 is 15.2 nM.

Question: For `C=C[C@H](CC(C)C)NC(=O)[C@H](Cc1ccc(O)cc1)NC[C@@H](N)CCCC` [Example 25, N'-[(S)-2-aminohexyl]-N-[(S)-1-(2-methylpropyl)-2-propenyl]-L-tyrosinamidedihydrochloride], which IC50 is on record?
Answer: Its IC50 is 89 nM.

Question: With `CCCC[C@H](N)CN[C@@H](Cc1ccc(O)cc1)C(=O)N[C@H](/C=C/c1ccc(C)cc1)[C@@H](C)CC` [Example 1, N'-[(S)-2-aminohexyl]-N-[(S)-(E)-3-(4-methylphenyl)-1-[(S)-1-methylpropyl]-2-propenyl]-L-tyrosinamide dihydrochloride] as the molecule, how does the IC50 read?
Answer: Its IC50 is 0.59 nM.

Question: How did the IC50 turn out when `CCCC[C@H](N)CN[C@@H](Cc1ccc(O)cc1)C(=O)N[C@H](/C=C/c1ccncc1)CC(C)C` [Example 7, N'-[(S)-2-aminohexyl]-N-[(S)-(E)-1-(2-methylpropyl)-3-(4-pyridyl)-2-propenyl]-L-tyrosinamide trihydrochloride] was run?
Answer: Its IC50 is 0.93 nM.

Question: With `CCCC[C@H](N)CN[C@@H](Cc1ccc(O)cc1)C(=O)N[C@H](CC)CC(C)C` [Example 26, N'-[(S)-2-aminohexyl]-N-[(R)-1-ethyl-3-methylbutyl]-L-tyrosinamide dihydrochloride] as the molecule, how does the IC50 read?
Answer: The IC50 was 38.5 nM.

Question: `CCC/C=C\[C@@H](NC(=O)[C@H](Cc1ccc(O)cc1)NC[C@@H](N)CCCC)[C@@H](C)CC` [Example 3, N'-[(S)-2-aminohexyl]-N-[(S)-(Z)-1-[(S)-1-methylpropyl]-2-hexenyl]-L-tyrosinamide dihydrochloride] was tested. Which IC50 did it give?
Answer: Its IC50 is 12.6 nM.

Question: `CCCC[C@H](N)CN[C@@H](Cc1ccc(O)cc1)C(=O)N[C@@H](/C=C/c1ccncc1)CC(C)C` [Example 9, N'-[(S)-2-aminohexyl]-N-[(R)-(E)-1-(2-methylpropyl)-3-(4-pyridyl)-2-propenyl]-L-tyrosinamide trihydrochloride] was tested. Which IC50 did it give?
Answer: The IC50 was 22.1 nM.
